# Source: patent US10703765B2 (priority 2014, dated 2020)
# Where a name gives a salt, the structure may show the parent alone.
# Target: human σ1 receptor (Homo sapiens, UniProt Q99720)
# Assay: biochemical
# Type: binding
# Parameters: μ and σ1 dual binding: key to the marks not given beside the values
# Conditions: not given
# Chain of human σ1 receptor (Q99720 whole entry): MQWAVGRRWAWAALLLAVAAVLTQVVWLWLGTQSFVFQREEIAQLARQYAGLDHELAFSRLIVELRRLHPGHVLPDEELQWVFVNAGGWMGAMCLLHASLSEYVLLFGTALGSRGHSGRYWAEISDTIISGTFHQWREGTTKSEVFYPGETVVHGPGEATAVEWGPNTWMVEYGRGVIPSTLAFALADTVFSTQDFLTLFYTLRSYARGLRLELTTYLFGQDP
Compound,Ki [nM],μ and σ1 dual binding
"COCC1CN(c2ccccc2)CC2(CCN(CCc3ccccc3)CC2)O1 (stereo not drawn) [Example 319, 2-(methoxymethyl)-9-phenethyl-4-phenyl-1-oxa-4,9-diazaspiro[5.5]undecane hydrochloride]",< 500,–
"CC1OC2(CCN(CCc3ccccc3)CC2)CN(c2ccc(O)cc2)C1=O (stereo not drawn) [Example 293, 4-(4-hydroxyphenyl)-2-methyl-9-phenethyl-1-oxa-4,9-diazaspiro[5.5]undecan-3-one]",–,++
"CC1OC2(CCN(CCc3ccccc3)CC2)CN(c2nn(C)c3ccccc23)C1=O.Cl (stereo not drawn) [Example 200, 2-methyl-4-(1-methyl-1H-indazol-3-yl)-9-phenethyl-1-oxa-4,9-diazaspiro[5.5]undecan-3-one hydrochloride]",–,++
"CC1OC2(CCN(CCc3ccccc3)CC2)CN(c2ccn(C)n2)C1=O.Cl (stereo not drawn) [Example 20, 2-methyl-4-(1-methyl-1H-pyrazol-3-yl)-9-phenethyl-1-oxa-4,9-diazaspiro[5.5]undecan-3-one hydrochloride]",–,++
"CC1OC2(CCN(CCc3cncc(Cl)c3)CC2)CN(c2ccccc2)C1=O (stereo not drawn) [Example 115, 9-(2-(5-chloropyridin-3-yl)ethyl)-2-methyl-4-phenyl-1-oxa-4,9-diazaspiro[5.5]undecan-3-one hydrochloride]",< 500,–
"CC(C)C1OC2(CCN(CCc3ccccc3O)CC2)CN(c2ccccc2F)C1=O (stereo not drawn) [Example 297, 4-(2-fluorophenyl)-9-(2-hydroxyphenethyl)-2-isopropyl-1-oxa-4,9-diazaspiro[5.5]undecan-3-one]",< 100,–
"COCC1OC2(CCN(CCc3ccccc3F)CC2)CN(c2ccccc2F)C1=O (stereo not drawn) [Example 136, 9-(2-fluorophenethyl)-4-(2-fluorophenyl)-2-(methoxymethyl)-1-oxa-4,9-diazaspiro[5.5]undecan-3-one hydrochloride]",< 500,–
"Cc1ncsc1CCN1CCC2(CC1)CN(c1ccccc1)C(=O)C(C)O2 (stereo not drawn) [Example 61, 2-methyl-9-(2-(4-methylthiazol-5-yl)ethyl)-4-phenyl-1-oxa-4,9-diazaspiro[5.5]undecan-3-one hydrochloride]",< 500,–
"C[C@@H]1OC2(CCN(C[C@@H](O)c3ccccc3)CC2)CN(c2ccccc2)C1=O [Example 151c, (S)-9-((S)-2-hydroxy-2-phenylethyl)-2-methyl-4-phenyl-1-oxa-4,9-diazaspiro[5.5]undecan-3-one]",< 500,–
"CC1OC2(CCN(CCc3ccccc3)CC2)CN(Cc2cccc(F)c2)C1=O (stereo not drawn) [Example 155, 4-(3-fluorobenzyl)-2-methyl-9-phenethyl-1-oxa-4,9-diazaspiro[5.5]undecan-3-one hydrochloride]",< 100,–
"CC1OC2(CCN(CCc3cccc(F)n3)CC2)CN(c2ccccc2F)C1=O (stereo not drawn) [Example 89, 4-(2-fluorophenyl)-9-(2-(6-fluoropyridin-2-yl)ethyl)-2-methyl-1-oxa-4,9-diazaspiro[5.5]undecan-3-one hydrochloride]",< 500,–
"Cc1cc(C)n(CCN2CCC3(CC2)CN(c2ccccc2)C(=O)C(C)O3)n1.Cl (stereo not drawn) [Example 77, 9-(2-(3,5-dimethyl-1H-pyrazol-1-yl)ethyl)-2-methyl-4-phenyl-1-oxa-4,9-diazaspiro[5.5]undecan-3-one hydrochloride]",–,++
"CCOC(=O)c1cccc(N2CC3(CCN(CCc4ccccc4)CC3)OC(C)C2=O)c1.Cl (stereo not drawn) [Example 197, ethyl 3-(2-methyl-3-oxo-9-phenethyl-1-oxa-4,9-diazaspiro[5.5]undecan-4-yl)benzoate hydrochloride]",–,++
"CC1OC2(CCN(CCc3ccnc(C(F)(F)F)c3)CC2)CN(c2ccccc2)C1=O.Cl (stereo not drawn) [Example 40, 2-methyl-4-phenyl-9-(2-(2-(trifluoromethyl)pyridin-4-yl)ethyl)-1-oxa-4,9-diazaspiro[5.5]undecan-3-one hydrochloride]",–,++
"CC(=O)Nc1cccc(CCN2CCC3(CC2)CN(c2ccccc2)C(=O)C(C)O3)n1.Cl (stereo not drawn) [Example 254, N-(6-(2-(2-methyl-3-oxo-4-phenyl-1-oxa-4,9-diazaspiro[5.5]undecan-9-yl)ethyl)pyridin-2-yl)acetamide hydrochloride]",–,++
"COC(=O)CCN1CCC2(CC1)CN(Cc1ccccc1)CC1(CC1)O2 [Example 347, methyl 3-(12-benzyl-4-oxa-8,12-diazadispiro[2.1.5.3]tridecan-8-yl)propanoate]",< 500,–

# Same assay, conditions: combined class from Ki-σ1 (human σ1 receptor, A1) and Ki-μ (human μ-opioid receptor, A2) radioligand binding
row,Compound,μ and σ1 dual binding
1,"Oc1ccccc1CCN1CCC2(CC1)CN(c1ccccc1)CCO2 [Example 321, 2-(2-(4-phenyl-1-oxa-4,9-diazaspiro[5.5]undecan-9-yl)ethyl)phenol]",++
2,"COc1ccccc1N1CC2(CCN(CCc3ccccc3)CC2)OCC1=O [Example 4, 4-(2-methoxyphenyl)-9-phenethyl-1-oxa-4,9-diazaspiro[5.5]undecan-3-one]",++
3,"O=C1COC2(CCN(CCc3ccccn3)CC2)CN1Cc1ccccn1 [Example 84, 9-(2-(pyridin-2-yl)ethyl)-4-(pyridin-2-ylmethyl)-1-oxa-4,9-diazaspiro[5.5]undecan-3-one]",++
4,"CC(C)OCCN1CCC2(CC1)CN(Cc1ccc(C(F)(F)F)cn1)C(=O)C(C)O2 (stereo not drawn) [Example 125, 9-(2-isopropoxyethyl)-2-methyl-4-((5-(trifluoromethyl)pyridin-2-yl)methyl)-1-oxa-4,9-diazaspiro[5.5]undecan-3-one]",++
5,"COc1ccccc1N1CC2(CCN(Cc3ccccc3)CC2)OCC1=O [Example 2, 9-benzyl-4-(2-methoxyphenyl)-1-oxa-4,9-diazaspiro[5.5]undecan-3-one]",++
6,"CC1OC2(CCN(CCc3ccnc(N)c3)CC2)CN(c2ccccc2)C1=O (stereo not drawn) [Example 32, 9-(2-(2-aminopyridin-4-yl)ethyl)-2-methyl-4-phenyl-1-oxa-4,9-diazaspiro[5.5]undecan-3-one]",++

# Same assay, conditions: read-out: μ and σ1 dual binding
row,Compound,Ki [nM]
1,"O=C1COC2(CCN(CCc3ccccc3)CC2)CN1c1ccccc1F [Example 189, 4-(2-fluorophenyl)-9-phenethyl-1-oxa-4,9-diazaspiro[5.5]undecan-3-one]",< 500
2,"CC1OC2(CCN(CCc3cccc(N)n3)CC2)CN(c2cnccc2C(F)(F)F)C1=O (stereo not drawn) [Example 42, 9-(2-(6-aminopyridin-2-yl)ethyl)-2-methyl-4-(4-(trifluoromethyl)pyridin-3-yl)-1-oxa-4,9-diazaspiro[5.5]undecan-3-one hydrochloride]",> 500
3,"NC(=O)Nc1cccc(CCN2CCC3(CC2)CN(Cc2ccc(C(F)(F)F)cn2)C(=O)C2(CC2)O3)c1 [Example 263, {3-[2-(13-oxo-12-{[5-(trifluoromethyl)pyridin-2-yl]methyl}-4-oxa-8,12-diazadispiro[2.1.5.3]tridecan-8-yl)ethyl]phenyl}urea]",< 500
4,"CC1OC2(CCN(CCc3ccccc3)CC2)CN(CC(C)(C)O)C1=O (stereo not drawn) [Example 183, 4-(2-hydroxy-2-methylpropyl)-2-methyl-9-phenethyl-1-oxa-4,9-diazaspiro[5.5]undecan-3-one]",> 500
5,"O=C1COC2(CCN(CCc3ccccn3)CC2)CN1Cc1ccc(C(F)(F)F)cn1 [Example 98, 9-(2-(pyridin-2-yl)ethyl)-4-((5-(trifluoromethyl)pyridin-2-yl)methyl)-1-oxa-4,9-diazaspiro[5.5]undecan-3-one hydrochloride]",< 500
6,"O=C1COC2(CCN(CCc3ccccc3)CC2)CN1c1ccc(F)cc1 [Example 190, 4-(4-fluorophenyl)-9-phenethyl-1-oxa-4,9-diazaspiro[5.5]undecan-3-one]",< 500
7,"CC1OC2(CCN(CCc3ccccc3)CC2)CN(Cc2cscn2)C1=O (stereo not drawn) [Example 164, 2-methyl-9-phenethyl-4-(thiazol-4-ylmethyl)-1-oxa-4,9-diazaspiro[5.5]undecan-3-one]",< 100
8,"CC1OC2(CCN(CCc3ccccc3)CC2)CN(c2cccc(C(=O)O)c2)C1=O (stereo not drawn) [Example 268, 3-(2-methyl-3-oxo-9-phenethyl-1-oxa-4,9-diazaspiro[5.5]undecan-4-yl)benzoic acid]",> 500
9,"CC(=O)Nc1ccc(CCN2CCC3(CC2)CN(c2ccccc2)C(=O)C(C)O3)nc1 (stereo not drawn) [Example 252, N-(6-(2-(2-methyl-3-oxo-4-phenyl-1-oxa-4,9-diazaspiro[5.5]undecan-9-yl)ethyl)pyridin-3-yl)acetamide]",> 500
10,CC(C)=C1OC2(CCN(CCc3ccccn3)CC2)CN(c2ccccc2F)C1=O [Example 139],> 500
11,"CC1OC2(CCN(CCc3cccnc3N)CC2)CN(c2cnccc2C(F)(F)F)C1=O (stereo not drawn) [Example 240, 9-(2-(2-aminopyridin-3-yl)ethyl)-2-methyl-4-(4-(trifluoromethyl)pyridin-3-yl)-1-oxa-4,9-diazaspiro[5.5]undecan-3-one hydrochloride]",> 500
12,"CC1OC2(CCN(CCc3cn[nH]c3)CC2)CN(c2ccccc2)C1=O (stereo not drawn) [Example 147, 9-(2-(1H-pyrazol-4-yl)ethyl)-2-methyl-4-phenyl-1-oxa-4,9-diazaspiro[5.5]undecan-3-one]",> 500
13,"CC1OC2(CCN(CCn3ccc(N)n3)CC2)CN(c2ccccc2)C1=O (stereo not drawn) [Example 237, 9-(2-(3-amino-1H-pyrazol-1-yl)ethyl)-2-methyl-4-phenyl-1-oxa-4,9-diazaspiro[5.5]undecan-3-one hydrochloride]",> 500
14,"CC(=O)Nc1cccc(CCN2CCC3(CC2)CN(Cc2ccccc2)CCO3)c1 [Example 339, N-(3-(2-(4-benzyl-1-oxa-4,9-diazaspiro[5.5]undecan-9-yl)ethyl)phenyl)acetamide]",< 100
15,"Nc1cccc(CCN2CCC3(CC2)CN(c2ccccc2)C(=O)C2(CC2)O3)c1 [Example 231, 8-(3-aminophenethyl)-12-phenyl-4-oxa-8,12-diazadispiro[2.1.5.3]tridecan-13-one]",> 500
16,"CC1OC2(CCN(CCc3ccccc3)CC2)CN(c2cnccn2)C1=O (stereo not drawn) [Example 195, 2-methyl-9-phenethyl-4-(pyrazin-2-yl)-1-oxa-4,9-diazaspiro[5.5]undecan-3-one hydrochloride]",< 500
17,"CC1OC2(CCN(CCc3ccccc3)CC2)CN(c2ccccc2F)C1=O (stereo not drawn) [Example 192, 4-(2-fluorophenyl)-2-methyl-9-phenethyl-1-oxa-4,9-diazaspiro[5.5]undecan-3-one hydrochloride]",< 100
